Patent US20110275606A1, “SUBSTITUTED PORPHYRINS” (DUKE UNIVERSITY, priority 2009, published 2011)

Tests used:
[1] = Thin layer chromatography Rf (lipophilicity); format: physicochemical; details: thin-layer silica, saturated KNO3(aq):H2O:MeCN (1:1:8); measure of lipophilicity
Protocol: Thin layer chromatography (TLC) was carried out in polyester-backed silica-gel sheets without fluorescent indicator (Sigma-Aldrich Z122777-25EA) cut into ˜2×20 cm strips and eluted with a saturated KNO3(aq):H2O:MeCN (1:1:8, v/v/v) mixture in a capped 1 L chamber. Typically, 1 microliter of ˜1 mM samples were applied at ˜1 cm of the strip border and the solvent front was allowed to run ˜12 cm.
(§1) Table indicating the redox properties (E1/2 of the Mn^IIIP/Mn^IIP redox couple) and antioxidant (log kcat for the dismutation of superoxide, O2′^−) properties of ortho and meta isomers of Mn N-substituted pyridylporphyrins. The E1/2 and log kcat were determined as described in Reboucas et al., Dalton Trans., 2008, 1233-42. Rf is the ratio of the drug path over solvent path on thin-layer silica with water/acetonitrile/KNO3 saturated water and is a measure of […]. […] In addition, as the length of the pyridyl substituent increases the SOD activity of the ortho compounds drops while there is no change in the SOD activity of the meta compounds.
Rf is a measure of lipophilicity and is linearly related to log P where P is the partition coefficient between water and n-octanol. (Kos et al., Free Radic. Biol. Med., 47, 72-78, 2009, which is incorporated by reference herein).

wild type cells = assay: Annexin V/propidium iodide post-radiation apoptosis, wild type cells; format: cell-based; details: 5 Gy
Protocol: (§2) Annexin V/propidium iodide staining is used as a second method to measure radiation-induced cytotoxicity. Cells are incubated in fresh medium along with the compounds at the final concentrations indicated. One set of samples is irradiated (5 Gy) to efficiently induce apoptosis within 48 hours. An annexin V/propidium iodide kit (BioVision) is used to detect apoptotic cells. The annexin V is labeled with fluorescein isothiocyanate (FITC) to detect phospholipid phosphatidylserine (PS) on the outer membrane of apoptotic cells; propidium iodide (PI) is used to detect necrotic cells. The assay is performed according to the manufacturer's instructions. Briefly, approximately 5×10^5 cells are washed in PBS, resuspended in annexin V and PI staining solution for 15 min at room temperature and analyzed immediately by flow cytometry (Flow Cytometry Core, UCLA). Annexin V and propidium iodide staining is used to measure post-radiation apoptosis.

A-T cells = assay: Annexin V/propidium iodide post-radiation apoptosis, A-T cells; format: cell-based; details: 5 Gy
Protocol: as §2

Wildtype (WT) cells = assay: Gamma H2AX immunofluorescence, radiation-induced DNA damage; format: cell-based; details: 2 Gy, assessed at 15 minutes
Protocol: Radiation-induced DNA damage recognition is measured by γ-H2AX immunofluorescence. Wildtype (WT) cells are propagated in fresh medium with the compounds at specified concentrations. […] WT cells are collected at log phase of their growth cycle, after an 18-hour incubation with the indicated compounds. After treatment, the cells are irradiated with 2 Gy and assessed at 15 minutes. These conditions maximize the yield of DNA damaged cells while minimizing cytotoxicity. The cells are dropped onto cover slips and fixed with 4% paraformaldehyde, semi-permeabilized with 0.5% Triton-X 100 and washed with PBS. Cells are incubated with 1:400 dilution of mouse monoclonal antibody to γ-H2AX (Upstate Biotechnology), followed by 1:200 dilution of goat anti-mouse IgG antibody to immunoglobulin labeled with FITC (Jackson Immunochemicals) in PBS containing 10% FBS for 1.5 and 1 h, respectively. Slides are analyzed for γ-H2AX nuclear foci formation with FISH analysis software (Vysis) on a Leica DM RXA automated microscope equipped with Photometrix SenSyn. All slides are coded by one person and read blindly by another.

[2] = Redox properties: E1/2 of the Mn^IIIP/Mn^IIP redox couple; format: physicochemical
Protocol: as §1

[3] = tested on: 4T1 window chamber tumors; assay: Radiosensitivity of tumor vasculature in vivo (window chamber); set-up: species or system mice; details: combined with radiation 3 x 5 Gy; 6 mg/kg/day for three days; between 48 and 72 hours post-radiation
Protocol: 4T1 window chamber tumors are randomized to treatment with PBS or MnTE-2-PyP^5+, and radiation or sham-irradiation. […] Tumors are imaged immediately after radiation (0 hours), and every day thereafter (24, 48, and 72 hours), and these images are used to calculate the tumor vascular length densities.
Mice are anesthetized with sodium pentobarbital (80 mg/kg, i.p.), and a 1-cm diameter circular incision is made in the dorsal skin flap, over which a titanium chamber is surgically implanted. A 10-μL suspension of tumor cells (5×10^3 cells) is then injected into the opposing flap of skin. […] Observations of window chamber tumors are performed daily on restrained, unanaesthetized mice with an inverted Zeiss fluorescence microscope (Carl Zeiss, Jena, Germany). Images are captured onto a personal computer with Scion Image software (Frederick, Md.) and analyzed with Adobe Photoshop (San Jose, Calif.). Tumor volume and vascular length densities are calculated as follows. Briefly, tumor volumes are calculated with the formula: d^2(3.14/2), where the diameter is determined from low-power (2.5×) microscopy images by comparing pixel dimensions with micrometer values. Vascular length densities are measured from medium-power (5×) fields by using image analysis software (Scion Image) to trace the vascular network. […]

[4] = Antioxidant properties: log kcat for the dismutation of superoxide (SOD activity); format: biochemical
Protocol: as §1

CD1 male mice = assay: Carrageenan-induced pleurisy; format: in vivo; details: 0.3 mg/kg; 4 h after carrageenan
Protocol: Pleurisy is induced by carrageenan. Six to eight week old CD1 male mice are used. The mice are anesthetized with isoflurane and a skin incision is made at the level of the left sixth intercostal space. The underlying muscle is dissected and saline (0.2 ml) or saline containing 1% (w/v) λ-carrageenan (Sigma-Aldrich Ltd, 0.2 ml) is injected into the pleural cavity. The skin incision is closed with a suture and the animals are allowed to recover. At 4 h after the injection of carrageenan, the animals are killed. The chest is carefully opened and the pleural cavity is rinsed with 2 ml of saline solution containing heparin (5 U/ml) and indomethacin (10 μg/ml). The exudate and washing solution is removed by aspiration and the total volume is measured. Any exudate, which is contaminated with blood, is discarded. The amount of exudate is calculated by subtracting the volume injected (2 ml) from the total volume recovered. The leukocytes in the exudate are suspended in phosphate-buffer saline (PBS, 0.01M, pH7.4) and counted with an optical microscope in a Burker's chamber after vital Trypan Blue staining.

WT cells = assay: XTT cell proliferation, radiation-induced cytotoxicity; format: cell-based; details: 5 Gy, 48 hours post-radiation, compared to untreated irradiated WT cells
Protocol: XTT, a tetrazolium salt, is used to measure cell viability after irradiation exposure. XTT is reduced by viable mitochondria to formazan, which causes a colorimetric change that can be measured at 450 nm. Approximately 5×10^4 cells are seeded per well in 96-well plates and incubated for 18 hours in fresh medium along with the compound at the final concentration indicated (3 replicates each). One set of plates is used as an unirradiated control and the other set was irradiated with 5 Gy. Five Gy is the optimal dose for observing efficient cytotoxicity within 48 hours. An XTT cell proliferation kit (Roche) is used to measure this cytotoxicity. All assays are performed in triplicate and the absorbance is read on a Spectramax plate reader. XTT is used to assess both the toxicity of the compounds and the effect of each compound on IR-induced cytotoxicity. All cells are pre-treated with the indicated compound two hours prior to being irradiated with 5 Gy and are assayed for viability 48 hours post-radiation.

[5] = tested on: B16F10 melanoma cell line; assay: Hyperthermia plus Mn porphyrin, tumor growth delay; format: in vivo, C57/BL6 mice; details: combination with hyperthermia (1d, 5d, 8d); 5 mg/kg twice per day; sacrifice day 9
Protocol: Treatment with hyperthermia and Mn porphyrins leads to a significant delay in tumor growth. In C57/BL6 mice, B16F10 melanoma cell line ([…]) is implanted in right flank. […] Tumor volumes are measured. Animals are sacrificed at day 9.

Male Sprague-Dawley rats = assay: Carrageenan-induced paw oedema; format: in vivo; details: 0.3 mg/kg; rat paw
SOD-deficient E. coli = assay: Aerobic growth of SOD-deficient E. coli in minimal medium (turbidimetry at 700 nm); format: cell-based, Escherichia coli; details: 20 and 30 μM, 19th hour, positive control MnTE-2-PyP^5+
Protocol: Escherichia coli (E. coli) strains used were AB1157, wild type (F-thr-1; leuB6; proA2; his-4; thi-1; argE2; lacY1; galK2; rpsL; supE44; ara-14; xyl-15; mtl-1; tsx-33), and JI1132, SOD-deficient, sodA-sodB-(same as AB1157 plus (sodA::mudPR13)25 (sodB-kan)1-Δ2). Both strains were obtained from J. A. Imlay. In addition to AB/JI strains another strain GC and its SOD-deficient analogue QC were used. The experiments were carried out as described in more detail in Reboucas et al., Dalton Trans., 2008, 1233-42. Briefly, cultures were grown aerobically in a 5 amino acid restricted medium (L-leucine, L-threonine, L-proline, L-arginine, L-histidine) in flasks on a water bath shaker at 37° C. and 200 rpm. The effect of the compound of Example 1 on the growth of these strains was followed turbidimetrically at 700 nm (to minimize the interference of compounds studied) and compared to the growth curves of both strains in the absence of Mn porphyrin (controls). Deionized water was used throughout the study. The effects are shown in FIG. 2 for one strain (QC and GC) and in FIG. 3 for other strain (AB and JI). […] The effects varied with the type of the strain.

| Rf [1] | Molecule | reduction in the percentage of apoptotic cells after radiation exposure (wild type cells) | reduction in the percentage of apoptotic cells after radiation exposure (A-T cells) | reduction of IR-induced γ-H2AX immunofluorescent nuclear foci (IRIFs) (Wildtype (WT) cells) | E1/2 [2] | tumor devascularization (vascular length density) [3] | logkcat [4] | decrease of myeloperoxidase activity (CD1 male mice) | decrease of number of polymorphonuclear cells (CD1 male mice) | decrease of volume of exudates (CD1 male mice) | reduction of IR-induced cytotoxicity (WT cells) | delay of tumor growth [5] | decrease of myeloperoxidase activity (Male Sprague-Dawley rats) | decrease of number of polymorphonuclear cells (Male Sprague-Dawley rats) | protecting E. coli compared with MnTE-2-PyP^5+ (FIG. 3) (SOD-deficient E. coli; SOD-deficient strain JI / wild type AB) | protecting E. coli compared with MnTE-2-PyP^5+ (FIG. 2) (SOD-deficient E. coli; SOD-deficient strain QC / wild type GC) |
| --- | --- | --- | --- | --- | --- | --- | --- | --- | --- | --- | --- | --- | --- | --- | --- | --- |
| 0.09 | OCCC[n+]1ccccc1-c1c2nc(c(-c3cccc[n+]3CCCO)c3ccc([nH]3)c(-c3cccc[n+]3CCCO)c3nc(c(-c4cccc[n+]4CCCO)c4ccc1[nH]4)C=C3)C=C2 [H2TnPrOH-2-PyP] | – | – | – | – | – | – | – | – | – | – | – | – | – | – | – |
| 0.1 | OCCC[n+]1cccc(-c2c3nc(c(-c4ccc[n+](CCCO)c4)c4ccc([nH]4)c(-c4ccc[n+](CCCO)c4)c4nc(c(-c5ccc[n+](CCCO)c5)c5ccc2[nH]5)C=C4)C=C3)c1 [H2TnPrOH-3-PyP] | – | – | – | – | – | – | – | – | – | – | – | – | – | – | – |
| 0.05 | MnTnPrOH-2-PyP^5+ | 60% | 40% | 57% | +238 mV | significant tumor devascularization | 7.38 | to control levels | to control levels | to control levels | 50% | Full delay of tumor growth | to control levels | to control levels | – | – |
| – | MnTnPrOH-3-PyP^5+ | 60% | 40% | 57% | +52 mV | significant tumor devascularization | 6.83 | to control levels | to control levels | to control levels | 50% | Full delay of tumor growth | to control levels | to control levels | better | similar |
